molecular target: T1, c-kit (Homo sapiens, UniProt P10721); assay: Mo7e cell proliferation assay (SCF dependent proliferation); format: cell-based; conditions: Table 1; Mo7e cells stimulated with human recombinant SCF, 48 hours; 1% FBS
T1 construct: human Mo7e cells which endogenously express c-kit; endogenous in cells; host or cells: human Mo7e cells (promegakaryocytic leukemia line), stimulated with human recombinant SCF
Protocol: Compounds of Formula (I) and Formula (II) provided herein were assayed to measure their capacity to inhibit c-kit and PDGFR kinases using the appropriate assay described below: c-Kit inhibition was evaluated using the Mo7e cell proliferation assay, and PDGFR inhibition was evaluated using the Rat A10 cell proliferation assay and the Human TG/HA-VSMC cell proliferation assay.
The compounds of Table 1 and Table 2 were tested for inhibition of SCF dependent proliferation using human Mo7e cells which endogenously express c-kit in a 384 well format. […] After 48 hours of incubation at 37° C., cell viability was measured by adding 25 uL of CellTiter Glo (Promega) to the cells and the luminescence was measured by a CLIPR CCD camera (Molecular Devices).
The IC50 value is given as that concentration of the test compound in question that provoke a response halfway between the baseline and maximum responses.

T1 sequence (P10721 26-976): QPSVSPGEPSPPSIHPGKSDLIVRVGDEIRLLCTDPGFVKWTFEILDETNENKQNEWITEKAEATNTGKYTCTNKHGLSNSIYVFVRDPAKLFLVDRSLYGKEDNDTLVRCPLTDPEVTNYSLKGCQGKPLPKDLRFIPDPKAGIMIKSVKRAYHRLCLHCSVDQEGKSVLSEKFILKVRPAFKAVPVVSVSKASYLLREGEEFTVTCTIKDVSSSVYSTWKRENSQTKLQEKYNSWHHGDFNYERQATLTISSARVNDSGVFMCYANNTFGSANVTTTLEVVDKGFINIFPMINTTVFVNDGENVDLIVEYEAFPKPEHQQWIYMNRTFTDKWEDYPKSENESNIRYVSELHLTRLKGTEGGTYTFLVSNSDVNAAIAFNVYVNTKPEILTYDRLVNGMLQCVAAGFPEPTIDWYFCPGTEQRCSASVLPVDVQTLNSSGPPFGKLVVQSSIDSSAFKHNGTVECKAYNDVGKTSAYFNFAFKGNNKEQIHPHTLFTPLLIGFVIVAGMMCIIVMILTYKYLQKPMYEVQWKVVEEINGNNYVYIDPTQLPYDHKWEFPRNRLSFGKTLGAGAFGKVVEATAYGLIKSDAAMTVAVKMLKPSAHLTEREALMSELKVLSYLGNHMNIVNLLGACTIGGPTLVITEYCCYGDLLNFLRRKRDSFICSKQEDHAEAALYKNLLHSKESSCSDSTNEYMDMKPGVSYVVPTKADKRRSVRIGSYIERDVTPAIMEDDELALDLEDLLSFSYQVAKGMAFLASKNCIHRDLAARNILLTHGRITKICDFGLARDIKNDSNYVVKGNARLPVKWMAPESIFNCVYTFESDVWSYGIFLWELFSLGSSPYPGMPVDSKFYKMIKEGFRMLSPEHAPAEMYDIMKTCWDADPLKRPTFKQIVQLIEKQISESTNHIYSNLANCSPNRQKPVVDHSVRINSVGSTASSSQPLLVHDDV

Q: How did the IC50 turn out when `Cc1nc(C(F)(F)F)c(-c2nc(-c3ccc(C)c(NC(=O)c4cnc5ccccn45)c3)no2)s1` [F23, N-(2-methyl-5-{5-[2-methyl-4-(trifluoromethyl)-1,3-thiazol-5-yl]-1,2,4-oxadiazol-3-yl}phenyl)imidazo[1,2-a]pyridine-3-carboxamide] was run?
A: The IC50 was 61 nM.

Q: For `Cc1ccc(-c2nc(-c3ccccc3)no2)cc1NC(=O)c1cnc2ccccn12` [F2, N-[2-methyl-5-(3-phenyl-1,2,4-oxadiazol-5-yl)phenyl]imidazo[1,2-a]pyridine-3-carboxamide], which IC50 is on record?
A: The IC50 was 16 nM.

Q: How did the IC50 turn out when `Cc1ccc(Nc2noc(-c3ccccn3)n2)cc1NC(=O)c1cnc2ccccn12` [F21, N-(2-methyl-5-{[5-(pyridin-2-yl)-1,2,4-oxadiazol-3-yl]amino}phenyl)imidazo[1,2-a]pyridine-3-carboxamide] was run?
A: The IC50 was 8 nM.

Q: Which IC50 does the source give for `Cc1ccc(Nc2noc(-c3ccccc3)n2)cc1NC(=O)c1cnc2ccccn12` [F20, N-{2-methyl-5-[(5-phenyl-1,2,4-oxadiazol-3-yl)amino]phenyl}imidazo[1,2-a]pyridine-3-carboxamide] here?
A: Its IC50 is 10 nM.

Q: Which IC50 does the source give for `Cc1ccc(-c2nc(Nc3ccccc3)no2)cc1NC(=O)c1cnc2ccccn12` [F1, N-(2-methyl-5-(3-(phenylamino)-1,2,4-oxadiazol-5-yl)phenyl)imidazo[1,2-a]pyridine-3-carboxamide] here?
A: Its IC50 is 51 nM.

Q: `Cc1nc(-c2nc(-c3ccc(C)c(NC(=O)c4cnc5ccccn45)c3)no2)c(C(F)(F)F)o1` [F22, N-(2-methyl-5-{5-[2-methyl-5-(trifluoromethyl)-1,3-oxazol-4-yl]-1,2,4-oxadiazol-3-yl}phenyl)imidazo[1,2-a]pyridine-3-carboxamide] was tested. Which IC50 did it give?
A: The IC50 was 32 nM.

Q: With `Cc1ccc(Nc2noc(-c3cccc(N4CCOCC4)c3)n2)cc1NC(=O)c1cnc2ccccn12` [F14, N-[2-methyl-5-({5-[3-(morpholin-4-yl)phenyl]-1,2,4-oxadiazol-3-yl}amino)phenyl]imidazo[1,2-a]pyridine-3-carboxamide] as the compound, how does the IC50 read?
A: The IC50 was 29 nM.

Q: `Cc1ccc(Nc2noc(-c3ncccn3)n2)cc1NC(=O)c1cnc2ccccn12` [F19, N-(2-methyl-5-{[5-(pyrimidin-2-yl)-1,2,4-oxadiazol-3-yl]amino}phenyl)imidazo[1,2-a]pyridine-3-carboxamide] was tested. Which IC50 did it give?
A: The IC50 was 82 nM.

Q: How did the IC50 turn out when `Cc1ccc(-c2noc(-c3ccccn3)n2)cc1NC(=O)c1cnc2ccccn12` [F11, N-(2-methyl-5-(5-(pyridin-2-yl)-1,2,4-oxadiazol-3-yl)phenyl)imidazo[1,2-a]pyridine-3-carboxamide] was run?
A: The IC50 was 75 nM.

same assay, conditions: Table 1; Mo7e cells stimulated with human recombinant SCF, 48 hours; 20% FBS (values marked *)

Q: How did the IC50 turn out when `CCOc1cccc(-c2noc(-c3ccc(C)c(NC(=O)c4cnc5ccccn45)c3)n2)c1` [F8, N-{5-[3-(3-ethoxyphenyl)-1,2,4-oxadiazol-5-yl]-2-methylphenyl}imidazo[1,2-a]pyridine-3-carboxamide] was run?
A: The IC50 was 66 nM.

same assay, conditions: Table 2; Mo7e cells stimulated with human recombinant SCF, 48 hours; 1% FBS

Q: Which IC50 does the source give for `Cc1ccc(-c2noc(CCc3nn[nH]n3)n2)cc1NC(=O)c1cnc2ccccn12` [F67] here?
A: Its IC50 is over 10000 nM.

Q: `Cc1ccc(-c2noc(-c3ccc(N4CCOCC4)cc3)n2)cc1NC(=O)c1cnc2ccccn12` [F65, N-(2-methyl-5-{5-[4-(morpholin-4-yl)phenyl]-1,2,4-oxadiazol-3-yl}phenyl)imidazo[1,2-a]pyridine-3-carboxamide] was tested. Which IC50 did it give?
A: The IC50 was 1080 nM.

Q: How did the IC50 turn out when `Cc1ccc(-c2noc(CCn3cncn3)n2)cc1NC(=O)c1cnc2ccccn12` [F58, N-(2-methyl-5-{5-[2-(1H-1,2,4-triazol-1-yl)ethyl]-1,2,4-oxadiazol-3-yl}phenyl)imidazo[1,2-a]pyridine-3-carboxamide] was run?
A: The IC50 was 135 nM.

Q: `Cc1ccc(Nc2noc(-c3cccnn3)n2)cc1NC(=O)c1cnc2ccccn12` [F64, N-(2-methyl-5-{[5-(pyridazin-3-yl)-1,2,4-oxadiazol-3-yl]amino}phenyl)imidazo[1,2-a]pyridine-3-carboxamide] was tested. Which IC50 did it give?
A: Its IC50 is 115 nM.

Q: With `Cc1ccc(-c2noc(Cn3ccnc3)n2)cc1NC(=O)c1cnc2ccccn12` [F61, N-{5-[5-(1H-imidazol-1-ylmethyl)-1,2,4-oxadiazol-3-yl]-2-methylphenyl}imidazo[1,2-a]pyridine-3-carboxamide] as the compound, how does the IC50 read?
A: The IC50 was 280 nM.

Q: With `Cc1ccc(-c2noc(Cn3cncn3)n2)cc1NC(=O)c1cnc2ccccn12` [F63, N-{2-methyl-5-[5-(1H-1,2,4-triazol-1-ylmethyl)-1,2,4-oxadiazol-3-yl]phenyl}imidazo[1,2-a]pyridine-3-carboxamide] as the compound, how does the IC50 read?
A: Its IC50 is 269 nM.

Q: For `COc1cccc(F)c1-c1noc(-c2ccc(C)c(NC(=O)c3cnc4ccccn34)c2)n1` [F40, N-{5-[3-(2-fluoro-6-methoxyphenyl)-1,2,4-oxadiazol-5-yl]-2-methylphenyl}imidazo[1,2-a]pyridine-3-carboxamide], which IC50 is on record?
A: Its IC50 is 596 nM.

Q: With `Cc1ccc(-c2noc(Cn3ccnc3C)n2)cc1NC(=O)c1cnc2ccccn12` [F60, N-(2-methyl-5-{5-[(2-methyl-1H-imidazol-1-yl)methyl]-1,2,4-oxadiazol-3-yl}phenyl)imidazo[1,2-a]pyridine-3-carboxamide] as the compound, how does the IC50 read?
A: The IC50 was 445 nM.

Q: For `Cc1ccc(-c2nc(-c3ccncc3)no2)cc1NC(=O)c1cnc2ccccn12` [F70], which IC50 is on record?
A: Its IC50 is over 10000 nM.

same assay, conditions: Table 2; Mo7e cells stimulated with human recombinant SCF, 48 hours; 20% FBS instead of 1% FBS (values marked *)

Q: For `Cc1ccc(-c2nc(-c3cccc(F)c3)no2)cc1NC(=O)c1cnc2ccccn12` [F36, N-{5-[3-(3-fluorophenyl)-1,2,4-oxadiazol-5-yl]-2-methylphenyl}imidazo[1,2-a]pyridine-3-carboxamide], which IC50 is on record?
A: The IC50 was 173 nM.

Q: For `Cc1ccc(-c2noc(-c3ccccc3N3CCOCC3)n2)cc1NC(=O)c1cnc2ccccn12` [F51, N-(2-methyl-5-{5-[2-(morpholin-4-yl)phenyl]-1,2,4-oxadiazol-3-yl}phenyl)imidazo[1,2-a]pyridine-3-carboxamide], which IC50 is on record?
A: Its IC50 is 179 nM.

Q: Which IC50 does the source give for `Cc1ccc(-c2nc(-c3cnccn3)no2)cc1NC(=O)c1cnc2ccccn12` [F25, N-{2-methyl-5-[3-(pyrazin-2-yl)-1,2,4-oxadiazol-5-yl]phenyl}imidazo[1,2-a]pyridine-3-carboxamide] here?
A: Its IC50 is 424 nM.

Q: Which IC50 does the source give for `COc1ccccc1Cc1noc(-c2ccc(C)c(NC(=O)c3cnc4ccccn34)c2)n1` [F45, N-(5-{3-[(2-methoxyphenyl)methyl]-1,2,4-oxadiazol-5-yl}-2-methylphenyl)imidazo[1,2-a]pyridine-3-carboxamide] here?
A: Its IC50 is 116 nM.

Q: For `Cc1ccc(-c2nc(-c3cnccc3C)no2)cc1NC(=O)c1cnc2ccccn12` [F34, N-{2-methyl-5-[3-(4-methylpyridin-3-yl)-1,2,4-oxadiazol-5-yl]phenyl}imidazo[1,2-a]pyridine-3-carboxamide], which IC50 is on record?
A: The IC50 was 139 nM.

Q: How did the IC50 turn out when `Cc1ccc(-c2nc(-c3ccc(Cl)cc3)no2)cc1NC(=O)c1cnc2ccccn12` [F27, N-{5-[3-(4-chlorophenyl)-1,2,4-oxadiazol-5-yl]-2-methylphenyl}imidazo[1,2-a]pyridine-3-carboxamide] was run?
A: Its IC50 is 274 nM.

Q: How did the IC50 turn out when `Cc1ccc(-c2nc(-c3c(Cl)cccc3Cl)no2)cc1NC(=O)c1cnc2ccccn12` [F26, N-{5-[3-(2,6-dichlorophenyl)-1,2,4-oxadiazol-5-yl]-2-methylphenyl}imidazo[1,2-a]pyridine-3-carboxamide] was run?
A: Its IC50 is 845 nM.

Q: Which IC50 does the source give for `Cc1ccc(-c2noc(-c3ncccn3)n2)cc1NC(=O)c1cnc2ccccn12` [F48, N-{2-methyl-5-[5-(pyrimidin-2-yl)-1,2,4-oxadiazol-3-yl]phenyl}imidazo[1,2-a]pyridine-3-carboxamide] here?
A: Its IC50 is 815 nM.

Q: For `Cc1ccc(-c2nc(-c3cccnc3Cl)no2)cc1NC(=O)c1cnc2ccccn12` [F44, N-{5-[3-(2-chloropyridin-3-yl)-1,2,4-oxadiazol-5-yl]-2-methylphenyl}imidazo[1,2-a]pyridine-3-carboxamide], which IC50 is on record?
A: The IC50 was 236 nM.

Source: patent publication US20150051206A1, “COMPOUNDS AND COMPOSITIONS AS C-KIT KINASE INHIBITORS” (IRM LLC, priority 2011, published 2015)
